Results reported in patent publication US5919896A, “PF4A receptor” (Genentech, Inc., priority 1997, dated 1999).

B1: C5α: neutrophil chemoattractant C5a (protein, UniProt P01031 678-751, looked up)
C5a anaphylatoxin: TLQKKIEEIAAKYKHSVVKKCCYDGACVNNDETCEQRAARISLGPRCIKAFTECCVVASQLRANISHKDMQLGR
modifications: C5a anaphylatoxin
notes: neutrophil chemoattractant C5a
B2: NAP-2: neutrophil activating protein-2, C-X-C family member (protein, UniProt P02775 59-128, looked up)
Neutrophil-activating peptide …: AELRCMCIKTTSGIHPKNIQSLEVIGKGTHCNQVEVIATLKDGRKICLDPDAPRIKKIVQKKLAGDESAD
modifications: Neutrophil-activating peptide 2
B3: Rantes: C-C peptide of the platelet factor 4 superfamily (protein)
chain: SPYSSDTTPCCFAYIARPLPRAHIKEYFYTSGKCSNPAVVFVTRKNRQVCANPEKKWVREYINSLEMS

Legend:
IL8R-A = details: Holmes et al., cited from earlier work
[1] = tested on: IL-8 receptor (clone pRK5B.il8r1.1) on transfected COS cells; experiment: 125I-IL-8 binding competition on transfected COS cells; set-up: species or system human; details: COS cells transfected with clone pRK5B.il8r1.1
Procedure: Samanta et al., supra, Besemer et al., supra, Grob et al., supra.
Binding competition was performed with electroporated COS-7 cells after 1 day of expression in 6-well dishes (about 175,000 cells/dish). […] Wells were then washed, the cells harvested with trypsin, and counted. […] Neutrophil binding was performed as described (Pacholczyk et al., supra) but for 2 hr at 4° C.

[2] = tested on: human IL-8 receptor (clone pRK5B.il8r1.1); experiment: Flow cytometry intracellular Ca++ response of 293 cells transfected with IL-8 receptor; assay type: cell-based
Procedure: (§1) After two days, the cells were loaded with 2 μM indo-1 acetoxymethyl ester in RPMI medium (Sigma) for 30 min at 37° C. Intracellular Ca^++ was measured with a Coulter 753 flow cytometer using the ratio of 405 and 525 nm fluorescence. Grynkiewicz et al., J. Biol. Chem., 260: 3440-3450 (1985).
(§2) No response is found to fMLP. […] Oppenheim et al., supra.

human fMLP receptor = experiment: Flow cytometry intracellular Ca++ response of 293 cells transfected with fMLP receptor; assay type: cell-based; details: 293 cells transfected with human fMLP receptor
Procedure: as §1
(§3) Oppenheim et al., supra; Korchak et al., J. Biol Chem., 259: 4076-4082 (1984). […] Oppenheim et al., supra.

expressed IL-8 receptor = tested on: expressed IL-8 receptor
Source text: as §3

IL8R-B = details: background, Murphy and Tiffany; read-out: affinity of IL8R-B for ligand; cited from earlier work
[3] = tested on: Murphy and Tiffany receptor; experiment: Ligand affinity of the Murphy and Tiffany receptor (studies herein); assay type: binding, human
Source text: Murphy and Tiffany, supra, describe a receptor having a high degree of homology to the receptor of FIG. 2. […] This could be readily accomplished by routine screening methods.

[4] = tested on: receptor of FIG. 4 (8rr.20.15); experiment: Response of recombinant cells bearing the FIG. 4 receptor to PF4 superfamily ligands; assay type: cell-based, human; details: preliminary experiments
[5] = tested on: receptor of FIG. 5 (8rr.9); experiment: Response of recombinant cells bearing the FIG. 5 receptor to PF4 superfamily ligands; assay type: cell-based, human; details: preliminary experiments
[6] = tested on: expressed human fMLP receptor; experiment: 125I-IL-8 binding to the expressed human fMLP receptor
Source text: as §2

human neutrophils = experiment: Inhibition of 125I-IL-8 binding to human neutrophils; details: 475 pM of MGSA, no antibody
Source text: Cells were washed twice in the HBSS medium and resuspended to be 1×10^6 cells/ml.

[7] = tested on: receptor of FIG. 2 (IL-8 receptor); experiment: MGSA binding to the receptor of FIG. 2; set-up: species or system human
Source text: Murphy and Tiffany, supra, describe a receptor having a high degree of homology to the receptor of FIG. 2. […] This could be readily accomplished by routine screening methods. […] On the other hand, antibodies that can discriminate between the FIG. 2 and Murphy and Tiffany receptors and bind only to one or the other are useful in diagnosis. The receptor of FIG. 2 binds MGSA poorly, in contrast to the Murphy and Tiffany receptor.

| Molecule | recognition of ligand by IL8R-A (IL8R-A) | response of recombinant cells bearing the receptor [4] | response of recombinant cells bearing the receptor [5] | also measured |
| --- | --- | --- | --- | --- |
| CCCCC/C=C\C[C@@H](O)/C=C/C=C/C=C\[C@@H](O)CCCC(=O)O [LTB4, reference compound] | does not recognize |  |  |  |
| CSCC[C@H](NC=O)C(=O)N[C@@H](CC(C)C)C(=O)N[C@@H](Cc1ccccc1)C(=O)O [fMLP, f-Met-Leu-Phe, reference compound] | does not recognize |  |  | competition of 125I-IL-8 binding [1]: no competition; intracellular Ca++ response [2]: No response; intracellular Ca++ response (human fMLP receptor): respond; binding of 3H-fMLP to the expressed IL-8 receptor (expressed IL-8 receptor): failed to detect any binding |
| IL-8: Purified human 72 amino acid IL-8 made in E. coli |  | do not respond | do not respond | Kd (IL8R-A; background, read-out: affinity of IL8R-A for ligand): 2 nM; Kd (IL8R-B): 2 nM; intracellular Ca++ response [2]: clear transient increase; intracellular Ca++ response (human fMLP receptor): not; IL-8 affinity compared with the receptor of FIG. 2 [3]: as high or higher; binding of 125I-IL-8 to the expressed human fMLP receptor [6]: failed to detect any binding |
| MCAF: macrophage chemotactic and activating factor, C-C peptide | does not recognize |  |  |  |
| MCP1: PF4 superfamily ligand tested on cells bearing the FIG. 4 and 5 receptors |  | do not respond | do not respond |  |
| MGSA: NAP-3 (melanoma growth-stimulating activity [MGSA]/gro), C-X-C member of the PF4 superfamily | does recognize | do not respond | do not respond | inhibition of IL-8 binding to human neutrophils by MGSA (human neutrophils): approximately 50%; Kd (IL8R-B): 2 nM; Kd ([3]; read-out: affinity for MGSA): 1 to 10 nM; binding of MGSA [7]: poorly |
| TNF-α | does not recognize |  |  |  |
| B1 | does not recognize |  |  |  |
| B2 | does recognize |  |  |  |
| B3 |  | do not respond | do not respond |  |
